Target: 5-hydroxytryptamine receptor 4 (Rattus norvegicus, UniProt Q62758)
Assay: Displacement of [3H]GR113808 from 5-HT4 receptor in rat striatal membranes after 30 mins by liquid scintillation spectrometric analysis
Format: cell membranes, Striatum, Membrane

5-hydroxytryptamine receptor 4, sequence (Q62758 whole entry): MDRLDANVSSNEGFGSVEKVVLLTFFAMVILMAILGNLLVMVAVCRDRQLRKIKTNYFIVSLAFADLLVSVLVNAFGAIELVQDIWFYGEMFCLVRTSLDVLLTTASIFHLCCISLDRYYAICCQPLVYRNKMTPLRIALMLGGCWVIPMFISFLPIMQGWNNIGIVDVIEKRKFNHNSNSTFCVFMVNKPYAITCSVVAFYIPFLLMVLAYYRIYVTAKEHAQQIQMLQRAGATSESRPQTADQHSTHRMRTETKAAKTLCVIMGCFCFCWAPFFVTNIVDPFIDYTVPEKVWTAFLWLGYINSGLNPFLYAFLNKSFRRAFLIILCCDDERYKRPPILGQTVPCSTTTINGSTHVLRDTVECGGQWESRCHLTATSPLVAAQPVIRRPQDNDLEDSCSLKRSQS

Ki | Structure (SMILES)
0.081 nM | CCCCN1CCC(CNC(=S)c2cc(Cl)cc3[nH]cnc23)CC1
0.15 nM | CCCCN1CCC(CNC(=S)c2cccc3[nH]cnc23)CC1

Source: ChEMBL document CHEMBL3217537, “The importance of solvation in the design of ligands targeting membrane proteins” (Medchemcomm, 2011)
